The values that follow come from US7968558B2, “Amidine derivatives of 2-heteroaryl-quinazolines and quinolines; potent analgesics and anti-inflammatory agents” (Rottapharm S.p.A., priority 2006, dated 2011).

Test [1] concerns IL-1 production. The experiment in a line: IL-1 production in IL-1 stimulated human chondrosarcoma cell line. Format: cell-based. The settings on record: Compound concentration is 10 μM. The source says: (§1) The compounds of the invention have been found effective in interfering with cytokine production in several cell lines, representative examples of this effect are reported in Table 3, for two representative cytokines, in IL-1 stimulated human chondrosarcoma cell line.

In test [2] the test system is IL-6 production. The test can be described thus: IL-6 production in IL-1 stimulated human chondrosarcoma cell line. It is filed as cell-based. The note with it: Compound concentration is 10 μM.
Description: as §1

The subject of test [3] is Zymosan-induced mechanical hyperalgesia. The test can be described thus: Zymosan-induced mechanical hyperalgesia (Randall-Selitto). It is filed as in vivo, rat. The note with it: oral. Here is the method:
The interplantar injection of Zymosan-induced mechanical hyperalgesia was used as a model of inflammatory pain (Meller, Neuropharmacology, 1994, 33, 1471-1478). In this model, typically a male Sprague-Dawley or Wistar rat (200-250 g) receives an interplantar injection of 3 mg/100 μl zymosan into one hind paw. A marked inflammation occurs in this hind paw. Drugs are administered orally for evaluation of efficacy, 30 min. before the inflammatory insult. The hyperalgesia induced by zymosan administration was evaluated using the Randall-Selitto method (Arch. Int. Pharmacodyn., 1957, 111, 409). The quantitation of the analgesic effect is achieved by an analgesimeter, which consist in applying to the inflamed paw an increasing weight (from 130-140 g up to 500 g). The difference in the mechanical pain threshold between the basal value (generally 230-250 g) and the one tolerated by the animals treated with the drug, determined 4 hours after the inflammatory challenge, is defined as mechanical hyperalgesia.
Mechanical hyperalgesia is expressed for the compounds of the invention as ED50, which is the dose of the administered compound able to increase the pain threshold by 50% in comparison with the group of control animals. The corresponding ED100, representing the dose able of reducing of 100% the pain threshold, can be calculated for those cases where there is a linear dose-response relationship. In vivo anti-inflammatory effect exerted by the compound of the invention can be assessed in the same Zymosan induced inflammation test described above, by measuring the volume of the oedema induced by the inflammatory agent. The oedema was evaluated as the increase in the volume of the Zymosan injected paw within a time of 0-2 hrs. The measurements of the variation of the oedema volume of the paw were recorded using hydroplethysmometer, which consists of two plastic cuvettes containing a surfactant liquid, the larger one being used for immersion of the paw, connected to the smaller one which contains a trans-ducer capable of recording small displacements of the volume used for the measure. The paw is immersed in the cuvettes up to the tibiotarsal joint. The volume of the liquid displaced is proportional to the extent of the inflammation. The efficacy of the compounds of the invention in preventing oedema formation is expressed as ED30, and is measured 2 hours after the inflammatory challenge, and represents the dose able of reducing of 30%, the Zymosan induced paw volume increase in comparison to control animals (animals treated with Zymosan but treated with only distilled water instead of the testing compound). The corresponding ED50, representing the dose able of reducing of 50% the zymosan induced paw volume increase, can be calculated for those cases where there is a linear dose-response relationship.
In both the experiments, for each test compound, at least three doses were used, with 10 animals per group. Compounds of the invention were tested at 10, 20 and 40 mg/Kg.

The subject of test [4] is CFA-induced hyperalgesia. The test can be described thus: CFA model of chronic inflammatory pain. It is filed as in vivo, rat.
Test [5] concerns mechanical hyperalgesia associated with STZ-induced diabetes. The experiment in a line: STZ-induced diabetes mechanical hyperalgesia (neuropathic pain). Format: in vivo, rat. As to the method: Streptozotocin (STZ)-induced diabetes in the rat has been increasingly used as a model of painful diabetic neuropathy to assess the efficacies of potential analgesic agents (C. Courteix, Pain 1993, 53, 81-8). The compounds of the invention were tested for efficacy in reducing mechanical hyperalgesia associated with STZ-induced diabetes in the rat, according to the experimental model as described by the literature. Diabetes was produced with the injection of a single dose (75 mg/Kg i.p.) of STZ. In the following four weeks after the induction of diabetes the clinical symptoms (weight, body and skin temperature, motility and hyperglycemia) progressively developed by the animals, are strictly monitored. After four weeks, the scores obtained in diabetic rats to various pain stimuli (in particular mechanical stimuli) were grater than those in normal rats, indicating hyperalgesia. The hyperalgesia induced by diabetes was evaluated using the Randall-Selitto method as above described, and quantitated using the analgesimeter. Also in this case, the difference in the mechanical pain threshold between the basal value (generally 230-250 g) and the one tolerated by the animals treated with the drug, is defined as mechanical hyperalgesia. The compounds of the invention were administered i.p. (solution, Tween 80, 10% in saline) at different doses, and mechanical hyperalgesia was measured at the reported time, as maximum percent effect (MPE) which represents the difference (%) in pain threshold between the animals treated with the drug and the controls that received only the vehicle, compared with the weight borne by naïf non-diabetic controls. A 100% protection means that the diabetic animals treated with the compound can tolerate the same stimulus (weight) as the naïf non-diabetic animals. MPE higher than 100% means that the diabetic animal treated with the compound can tolerate stimuli (weight) higher than the control non-diabetic animals (hypoalgesia).

In general, ED50 refers to the dose that gives a 50% effect, or the effect in half of the subjects. Take `CC(=N)Nc1ccc2nc(-c3ccc4c(c3)OCO4)ncc2c1` [Example 1, N-[2-(1,3-benzodioxol-5-yl)quinazolin-6-yl]acetamidine]: in test [1], the “Inhibition (%) of IL-1 production” value was 50%. The “Inhibition (%) of IL-6 production” value in test [2] is on record as 65%. Moreover, the ED50 in test [3] (Rattus norvegicus, 30 min before zymosan, 4 hours after challenge, read-out: Analgesia ED50) was 6 mg/kg. In addition, the “Analgesia ED100” value in test [3] (calculated from linear dose-response) was 18 mg/kg. In addition, the “MPE 0.5 hrs.” value in test [4] (3 mg/Kg i.p.) is listed as 9%; in test [4] (10 mg/Kg i.p.), 28%; in test [4] (30 mg/Kg i.p.) it was 418%; in test [5] (3 mg/Kg i.p.) it was 15%; in test [5] (10 mg/Kg i.p.), 59%; in test [5] (30 mg/Kg i.p.), 110%. Moreover, the “MPE 1.5 hrs.” value in test [4] (10 mg/Kg i.p.) was found to be 47%; in test [4] (30 mg/Kg i.p.), 395%; in test [5] (3 mg/Kg i.p.), 30%; in test [5] (10 mg/Kg i.p.), 34%; in test [5] (30 mg/Kg i.p.) it was 137%. Further, the “MPE 3 hrs.” value came to 15% in test [4] (10 mg/Kg i.p.); 384% in test [4] (30 mg/Kg i.p.); 45% in test [5] (3 mg/Kg i.p.); 46% in test [5] (10 mg/Kg i.p.); 101% in test [5] (30 mg/Kg i.p.). In addition, the “MPE 6 hrs.” value in test [4] (10 mg/Kg i.p.) turned out to be 30%; in test [4] (30 mg/Kg i.p.), 132%. For the same compound, in test [4] (30 mg/Kg i.p., 24 hrs.), the “MPE 24 hrs.” value turned out to be 60%.
